Laboratory results taken from patent US20150087627A1, “COMBINATION OF KINASE INHIBITORS AND USES THEREOF” (Intellikine LLC, priority 2011, published 2015).
Values joined by “and” are separate entries in the source; they are usually repeats but may differ in a detail not shown here. Equal values may be shown once.

Tests used:
[1] = tested on: HCT-116 human colorectal cancer xenografts; experiment: Antitumor activity, HCT-116 xenografts (Example 44); assay type: in vivo, Mus musculus; settings: Day 21
Protocol: Compound A was prepared in PEG400 (TCAL, San Diego, Calif., USA) every 7 days and stored at room temperature, shielded from light. The vehicle used in this study was PEG400 (Sigma, St. Louis, Mo., USA).
Low passage (passage number 8) HCT-116 cells (American Type Culture Collection ATCC, Manassas, Va., USA) were grown in McCoy's 5A (ATCC) media with 10% fetal bovine serum (FBS) (PAA Laboratories Pty Ltd, Morningside, Queensland, Australia) and supplied at a concentration of 5.0×10^7 cells/mL. HCT-116 cells (5.0×10^6/animal, 0.1-mL injection volume) were implanted SC into the flank of female athymic nude mice. The animals used in this study are described in the following table.
Female 9 to 10-week-old female Foxn1 nu Hsd:Athymic nude mice were inoculated SC in the flank with 5.0×10^6 HCT-116 cells. Tumor growth was monitored with vernier calipers. The MTV was calculated using the formula V=W^2×L/2. […] Tumor growth and body weight were measured twice per week. Percent TGI and body weight change were calculated on Day 21 while animals were on treatment. […] Antitumor activity was determined by calculating the percent TGI using Equation 1: % tumor growth inhibition (TGI)=(mean tumor volume [MTV] of the control group−MTV of a treated group)/MTV of the control group×100. […]
Drug combinations were assessed for synergy using observed AUC values. […]

[2] = tested on: MDA-MB-361 human breast cancer xenografts; experiment: Antitumor activity and tumor regrowth, MDA-MB-361 xenografts (Example 42); assay type: in vivo, Mus musculus; settings: for MTV on Day 65: n = 4; for % TGI on Day 65: based on the control group on Day 65; for TGI: Day 29
Protocol: (room temperature), shielded from light. The test article Compound A was prepared in 5% NMP+95% PEG400 every 5 to 7 days and stored at approximately 25° C. (room temperature), shielded from light. The control article used in this study was 5% NMP+95% PEG400. Compounds were completely dissolved in NMP by sonication, followed by the addition of an appropriate volume of PEG400, and the final solution was vortexed and sonicated to ensure thorough mixing.
Low-passage MDA-MB-361 cells were grown in Eagle's Minimal Essential Medium (EMEM) media supplemented with 20% fetal bovine serum (FBS) and 1× penicillin/streptomycin (Invitrogen, Carlsbad, Calif., USA) until approximately 80% confluency was reached. Before injection, the cells were detached with GIBCO® trypsin (Invitrogen), washed twice with phosphate-buffered saline (PBS), and resuspended in Roswell Park Memorial Institute (RPMI) media (Invitrogen) without supplements. Cells were resuspended to a final concentration of 5×10^7 cells/mL in RPMI media without supplements. MDA-MB-361 cells (5.0×10^6 cells/animal in 0.1-mL injection volume) were implanted SC into the flank of female athymic nu/nu nude mice. The animals used in this study are described in the following table.
Female 5 to 6-week old female (athymic nu/nu) nude mice were inoculated SC in the flank with 5.0×10^6 MDA-MB-361 cells. Tumor growth was monitored with vernier calipers. The MTV was calculated using the formula V=W^2×L÷2. When the MTV reached approximately 235 mm^3, the animals were randomized into 4 treatment groups (n=8/group). Treatment started on Day 0. […] Tumor growth and body weight were measured twice weekly. Percent TGI and body weight change were calculated on Day 29. Four mice from each group were euthanized on Day 29 and tissues were harvested for pharmacodynamic studies. The remaining mice continued on study until Day 65, and tumor size and body weight in these mice were measured every 9 to 11 days.
Antitumor activity was determined by calculating the percent TGI using Equation 1: Percent TGI)=(MTV of the control group−MTV of a treated group) MTV of the control group×100
Tumor growth delay was determined by calculating the time until MTV in a given treatment group reached 1000 mm^3 versus the time until MTV in the control group reached 1000 mm^3.
The differences in trends of tumor growth over time between pairs of treatment groups were assessed using linear mixed-effects regression models. These models account for the fact that each animal was measured at multiple time points. A separate model was fit for each comparison, and the AUC for each treatment group was calculated using the predicted values from the model. The percent decrease in AUC (ΔAUC) relative to the reference group was then calculated.
A statistical analysis was performed with a linear mixed-effects regression model that takes into account the differences in trends of tumor growth between control and treated samples. Differences among mice were treated as random effects, and a compound symmetry covariance structure was used to model the variability between repeated tumor measurements for each mouse. Treatment comparisons were performed by using the fitted curves from the model to calculate the ΔAUC. The significance of the ΔAUC was assessed using permutation testing. All p values less than 0.05 were considered significant.
A combination score calculation was used to address the question of whether the effects of the combination treatments were more than additive (synergistic), additive, or subadditive (antagonistic) relative to the individual treatments. […] All p values less than 0.05 were considered significant.

SMILES | TGI ([1]; 120 mg/kg PO QD for 21 days) [%] | MTV on Day 65 ([2]; 60 mg/kg PO QD until Day 29, regrowth) | % TGI on Day 65 ([2]; 60 mg/kg PO QD until Day 29) [%] | TGI ([2]; 60.0 mg/kg PO QD) [%] | TGI ([1]; 0.6 mg/kg PO QD 5on/2off for 21 days, not significantly different from control) [%] | TGI ([2]; 0.3 mg/kg PO QD for 30 days) [%] | MTV on Day 65 ([2]; 0.3 mg/kg PO QD until Day 29, regrowth) [mm^3] | % TGI on Day 65 ([2]; 0.3 mg/kg PO QD until Day 29) [%] | MTV on Day 29 ([2]; 0.3 mg/kg PO QD, n = 8)
Nc1nc2cc(-c3ccc4ncc(C(=O)N5CCOCC5)n4c3)ccc2o1 [Compound A] | 8.2 | 500 mm^3 and 511.4 ± 568^ mm^3 | 69.5 | 77.4 |  |  |  |  | 
CC(C)n1nc(-c2ccc3oc(N)nc3c2)c2c(N)ncnc21 [Compound B] |  |  |  |  | 4.5 | 71.1 | 649.6 ± 457.7 | 61.3 | 210.9 mm^3 and 210.9 ± 103.3 mm^3
